Reference: ChEMBL document CHEMBL1145805, “Utilization of a beta-aminophosphotyrosyl mimetic in the design and synthesis of macrocyclic Grb2 SH2 domain-binding peptides” (J Med Chem, 2003)
The source made the active and inactive calls. No cut-off for these calls is given here.

Tests used:
[1] = molecular target: T1, Growth factor receptor-bound protein 2 (Homo sapiens, UniProt P62993); experiment: Inhibition of Growth factor receptor bound protein 2 SH2 domain in extracellular binding assay
[2] = molecular target: T1, Growth factor receptor-bound protein 2; experiment: Inhibition of growth factor receptor-bound protein 2 SH2 domain binding to erbB-2 in cell-based assay (Not significant)
MDA-MB-453 = experiment: Inhibition of MDA-MB-453 breast cancer cell proliferation (No inhibition); type: functional, cell-based; conditions: Homo sapiens

SMILES	IC50 [1] [µM]	NS [2]	NI (MDA-MB-453)
NC(=O)C[C@@H]1NC(=O)C2(CCCCC2)NC(=O)C[C@@H](c2ccc(CP(=O)(O)O)cc2)NC(=O)CCCNC1=O	47.9		
NC(=O)C[C@@H]1NC(=O)C2(CCCCC2)NC(=O)C[C@@H](c2ccc(CP(=O)(O)O)cc2)NC(=O)CCNC1=O	> 600		
NC(=O)C[C@H](NC(=O)C1(NC(=O)CCc2ccc(CP(=O)(O)O)cc2)CCCCC1)C(N)=O	52.5		

The next lines start with results.

IC50 [1] [µM]	NS [2]	SMILES	NI (MDA-MB-453)
7.9	inactive	NC(=O)C[C@@H]1NC(=O)C2(CCCCC2)NC(=O)C[C@@H](c2ccc(CP(=O)(O)O)cc2)NC(=O)C[C@@H](Cc2cccc3ccccc23)CNC1=O	inactive
> 600		NC(=O)C[C@@H]1NC(=O)C2(CCCCC2)NC(=O)C[C@@H](c2ccc(CP(=O)(O)O)cc2)NC(=O)CNC1=O	
0.026	inactive	NC(=O)C[C@@H]1NC(=O)C2(CCCCC2)NC(=O)C[C@@H](c2ccc(CP(=O)(O)O)cc2)/C=C/C[C@@H](Cc2cccc3ccccc23)CNC1=O	inactive
